# Laboratory results: patent publication US11098026B2, “Fused bicyclic compounds, compositions and applications thereof” (IMPETIS BIOSCIENCES LIMITED, priority 2017, dated 2021)
# Target: T1, human GPR91 receptor (Homo sapiens, UniProt Q9BXA5)
# T1 construct: expressed in transfected cells; host or cells: CHO-K1 NFAT cells
# T1 sequence (Q9BXA5 1-334): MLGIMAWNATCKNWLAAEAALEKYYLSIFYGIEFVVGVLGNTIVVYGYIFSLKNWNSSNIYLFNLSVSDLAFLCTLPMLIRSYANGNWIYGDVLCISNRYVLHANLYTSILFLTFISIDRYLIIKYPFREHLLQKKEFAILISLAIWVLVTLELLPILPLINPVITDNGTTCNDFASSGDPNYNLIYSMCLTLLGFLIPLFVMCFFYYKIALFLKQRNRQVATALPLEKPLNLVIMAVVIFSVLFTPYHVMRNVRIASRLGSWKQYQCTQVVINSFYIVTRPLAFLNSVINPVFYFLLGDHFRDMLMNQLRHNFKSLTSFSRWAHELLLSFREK
# Test: Human GPR91 calcium mobilization assay
# Format: cell-based
# Conditions: CHO-K1 NFAT cells over expressing human GPR91 receptor; Fluo4 AM; agonist sodium succinate; flex station; read-out: hGPR91 IC50 (μM)*
# Description: Human GPR91 Calcium Mobilization Assay
# To determine IC50 in CHO NFAT cells over expressing human GPR91 receptor calcium mobilization assay in flex station mode was carried out.
# Grow CHO-K1 NFAT cells over expressing human GPR91 receptors in alpha MEM media were supplemented with 10% FBS (heat inactivated), 0.5 mg/ml of G-418, 0.5 mg/ml of Zeocin and 0.6 mg/ml of Hygromycin B.
# The cells were seeded at least 21 hours before the experiment at the density of 25000/well in 96 well plate (Corning cat #no. 3603). It was made sure that cells were at least 95% confluent on the day of assay. No antibiotics were used for seeding purpose.
# On the day of assay the media was discarded from plates and plates were washed with 100 μl of HBSS assay buffer. The plates were loaded with Fluo4 AM at 2 μM concentration. Pluronic F-127 dye was solubilized in calcium assay buffer containing 0.1% BSA, i.e., 20 μl dye+20 μl Pluronic F127 for 10 ml. Appropriate amounts of 100× probenecid was added to the loading mixture 1× final (100 μl per 10 ml). Total volume of dye loaded was made 100 μl. The plate was then wrapped in aluminium foil to protect from light and were incubated for 90 mins at 37 degrees in cell culture incubator. At the end of incubation the plates was washed again with 100 μl of HBSS buffer without BSA and 75 μl of HBSS buffer was added (without BSA) to the plate.
# Further, 8 point-Dose response curve of the compounds of the present disclosure was prepared in 100% DMSO followed by 57.14-fold dilution to 1.75× in 1.75% DMSO in assay buffer. 100 μL of 1.75×NCE was added to the wells as shown below and incubated at room temp on orbital shaker at 300 rpm for 15 min. Flexstation [excitation @ 485 nm and emission @ 525 nm] for a total time of 60 seconds. 25 μL of 8× agonist (800 μM sodium succinate) was added to each well using the flexstation after establishing the baseline for 20 sec, Measurement—Max-Min over 60 sec. Using the above protocol results obtained are tabulate din the Table 1 below: […]
row,SMILES,IC50
1,"O=C(O)Cc1cccc(Oc2ccc(Oc3ccc4ncccc4c3)cc2C(F)(F)F)c1 [Compound A-6, 2-[3-[4-(6-quinolyloxy)-2-(trifluoromethyl)phenoxy]phenyl]acetic acid]",5 to 10 µM
2,"O=C(O)CCc1cccc(Oc2ccc(Oc3cccn4ccnc34)cc2C(F)(F)F)c1 [Compound A-7, 3-[3-[4-imidazo[1,2-a]pyridin-8-yloxy-2-(trifluoromethyl)phenoxy]phenyl]propanoic acid]",> 10 µM
3,"CN1CCc2cccc(Oc3ccc(Oc4cccc(CCC(=O)O)c4)c(C(F)(F)F)c3)c2C1 [Compound A-10, 3-[3-[4-[(2-methyl-3,4-dihydro-1H-isoquinolin-8-yl)oxy]-2-(trifluoromethyl)phenoxy]phenyl]propanoic acid]",> 10 µM
4,"O=C(O)CCc1cccc(Oc2ccc(Oc3cccc4c3OCCO4)cc2C(F)(F)F)c1 [Compound A-11, 3-[3-[4-(2,3-dihydro-1,4-benzodioxin-5-yloxy)-2-(trifluoromethyl)phenoxy]phenyl]propanoic acid]",> 10 µM
5,"O=C(O)CCc1cccc(Oc2ccc(Oc3cccc4cccnc34)cc2C(F)(F)F)c1 [Compound A-12, 3-[3-[4-(8-quinolyloxy)-2-(trifluoromethyl)phenoxy]phenyl]propanoic acid]",> 10 µM
6,"O=C(O)CCc1cccc(Oc2ccc(Oc3ccnc4ccccc34)cc2C(F)(F)F)c1 [Compound A-13, 3-[3-[4-(4-quinolyloxy)-2-(trifluoromethyl)phenoxy]phenyl]propanoic acid]",> 10 µM
7,"O=C(O)Cc1cccc(Oc2ccc(Oc3cccc4nncn34)cc2C(F)(F)F)c1 [Compound A-17, 2-[3-[4-([1,2,4]triazolo[4,3-a]pyridin-5-yloxy)-2-(trifluoromethyl)phenoxy]phenyl]acetic acid]",> 10 µM
8,"O=C(O)Cc1cccc(Oc2ccc(Oc3ccn4cnnc4c3)cc2C(F)(F)F)c1 [Compound A-19, 2-[3-[4-([1,2,4]triazolo[4,3-a]pyridin-7-yloxy)-2-(trifluoromethyl)phenoxy]phenyl]acetic acid]",> 10 µM
9,"O=C(O)Cc1cccc(Oc2ccc(Oc3ccc4c(cnn4C4COC4)c3)cc2C(F)(F)F)c1 [Compound A-23, 2-[3-[4-[1-(oxetan-3-yl)indazol-5-yl]oxy-2-(trifluoromethyl)phenoxy]phenyl]acetic acid]",> 10 µM
10,"O=C(O)Cc1cccc(Oc2ccc(Oc3ccc4nn(C5COC5)cc4c3)cc2C(F)(F)F)c1 [Compound A-24, 2-[3-[4-[2-(oxetan-3-yl)indazol-5-yl]oxy-2-(trifluoromethyl)phenoxy]phenyl]acetic acid]",> 10 µM
11,"O=C(O)Cc1cccc(Oc2ccc(Oc3ccc4nnn(C5COC5)c4c3)cc2C(F)(F)F)c1 [Compound A-25, 2-[3-[4-[3-(oxetan-3-yl)benzotriazol-5-yl]oxy-2-(trifluoromethyl)phenoxy]phenyl]acetic acid]",< 5 µM
12,"O=C(O)Cc1cccc(Oc2ccc(Oc3ccc4ncn(C5COC5)c4c3)cc2C(F)(F)F)c1 [Compound A-26, 2-[3-[4-[3-(oxetan-3-yl)benzimidazol-5-yl]oxy-2-(trifluoromethyl)phenoxy]phenyl]acetic acid]",< 5 µM
13,"Cc1nc2ccc(Oc3ccc(Oc4cccc(CC(=O)O)c4)c(C(F)(F)F)c3)cc2n1C1COC1 [Compound A-27, 2-[3-[4-[2-methyl-3-(oxetan-3-yl)benzimidazol-5-yl]oxy-2-(trifluoromethyl)phenoxy]phenyl]acetic acid]",< 5 µM
14,"Cc1nc2ccc(Oc3ccc(Oc4cccc(CC(=O)O)c4)c(C(F)F)c3)cc2n1C1COC1 [Compound A-28, 2-[3-[2-(difluoromethyl)-4-[2-methyl-3-(oxetan-3-yl)benzimidazol-5-yl]oxy-phenoxy]phenyl]acetic acid]",< 5 µM

# More lines, now with the values ahead:
row,IC50,SMILES
1,< 5 µM,"O=C(O)Cc1cccc(Oc2ccc(Oc3cccc4ccncc34)cc2C(F)(F)F)c1 [Compound A-1, 2-[3-[4-(8-isoquinolyloxy)-2-(trifluoromethyl)phenoxy]phenyl]acetic acid]"
2,< 5 µM,"O=C(O)Cc1cccc(Oc2ccc(Oc3cccc4cnncc34)cc2C(F)(F)F)c1 [Compound A-2, 2-[3-[4-phthalazin-5-yloxy-2-(trifluoromethyl)phenoxy]phenyl]acetic acid]"
3,< 5 µM,"O=C(O)CCc1cccc(Oc2ccc(Oc3cccc4cnncc34)cc2C(F)(F)F)c1 [Compound A-3, 3-[3-[4-phthalazin-5-yloxy-2-(trifluoromethyl)phenoxy]phenyl]propanoic acid]"
4,< 5 µM,"O=C(O)Cc1cccc(Oc2ccc(Oc3ccc(Cl)c4cnncc34)cc2C(F)(F)F)c1 [Compound A-4, 2-[3-[4-(8-chlorophthalazin-5-yl)oxy-2-(trifluoromethyl)phenoxy]phenyl]acetic acid]"
5,< 5 µM,"Cn1ncc2cccc(Oc3ccc(Oc4cccc(CC(=O)O)c4)c(C(F)(F)F)c3)c21 [Compound A-5, 2-[3-[4-(1-methylindazol-7-yl)oxy-2-(trifluoromethyl)phenoxy]phenyl]acetic acid]"
6,< 5 µM,"O=C(O)Cc1cccc(Oc2ccc(Oc3ccc(F)c4ccncc34)cc2C(F)(F)F)c1 [Compound A-8, 2-[3-[4-[(5-fluoro-8-isoquinolyl)oxy]-2-(trifluoromethyl)phenoxy]phenyl]acetic acid]"
7,< 5 µM,"O=C(O)Cc1cccc(Oc2ccc(Oc3cccc4ncncc34)cc2C(F)(F)F)c1 [Compound A-9, 2-[3-[4-quinazolin-5-yloxy-2-(trifluoromethyl)phenoxy]phenyl]acetic acid]"
8,< 5 µM,"O=C(O)CCc1cccc(Oc2ccc(Oc3cccc4cnccc34)cc2C(F)(F)F)c1 [Compound A-14, 3-[3-[4-(5-isoquinolyloxy)-2-(trifluoromethyl)phenoxy]phenyl]propanoic acid]"
9,< 5 µM,"Cn1cc2c(Oc3ccc(Oc4cccc(CC(=O)O)c4)c(C(F)(F)F)c3)cccc2n1 [Compound A-15, 2-[3-[4-(2-methylindazol-4-yl)oxy-2-(trifluoromethyl)phenoxy]phenyl]acetic acid]"
10,< 5 µM,"Cn1ncc2c(Oc3ccc(Oc4cccc(CC(=O)O)c4)c(C(F)(F)F)c3)cccc21 [Compound A-16, 2-[3-[4-(1-methylindazol-4-yl)oxy-2-(trifluoromethyl)phenoxy]phenyl]acetic acid]"
11,< 5 µM,"O=C(O)Cc1cccc(Oc2ccc(Oc3ccc4c(c3)NCCO4)cc2C(F)(F)F)c1 [Compound A-18, 2-[3-[4-(3,4-dihydro-2H-1,4-benzoxazin-6-yloxy)-2-(trifluoromethyl)phenoxy]phenyl]acetic acid]"
12,< 5 µM,"O=C(O)Cc1cccc(Oc2ccc(Oc3ccc4ccn(C5COC5)c4c3)cc2C(F)(F)F)c1 [Compound A-20, 2-[3-[4-[1-(oxetan-3-yl)indol-6-yl]oxy-2-(trifluoromethyl)phenoxy]phenyl]acetic acid]"
13,< 5 µM,"O=C(O)Cc1cccc(Oc2ccc(Oc3ccc4cnn(C5COC5)c4c3)cc2C(F)(F)F)c1 [Compound A-21, 2-[3-[4-[1-(oxetan-3-yl)indazol-6-yl]oxy-2-(trifluoromethyl)phenoxy]phenyl]acetic acid]"
14,< 5 µM,"O=C(O)Cc1cccc(Oc2ccc(Oc3ccc4cn(C5COC5)nc4c3)cc2C(F)(F)F)c1 [Compound A-22, 2-[3-[4-[2-(oxetan-3-yl)indazol-6-yl]oxy-2-(trifluoromethyl)phenoxy]phenyl]acetic acid]"
